{
  "source": "patent US8362204B2",
  "about": "(priority 2006, dated 2013)",
  "key": {"[1]": {"molecular_target": "T1, neuronal-type nicotinic receptors (Bos taurus, UniProt Q07263+Q8SPU6)", "T1 construct": "monolayer cultures of bovine adrenal chromaffin cells; endogenous in cells; host or cells: bovine adrenal chromaffin cells (primary monolayer cultures)", "T1 sequence (Q07263 22-495)": "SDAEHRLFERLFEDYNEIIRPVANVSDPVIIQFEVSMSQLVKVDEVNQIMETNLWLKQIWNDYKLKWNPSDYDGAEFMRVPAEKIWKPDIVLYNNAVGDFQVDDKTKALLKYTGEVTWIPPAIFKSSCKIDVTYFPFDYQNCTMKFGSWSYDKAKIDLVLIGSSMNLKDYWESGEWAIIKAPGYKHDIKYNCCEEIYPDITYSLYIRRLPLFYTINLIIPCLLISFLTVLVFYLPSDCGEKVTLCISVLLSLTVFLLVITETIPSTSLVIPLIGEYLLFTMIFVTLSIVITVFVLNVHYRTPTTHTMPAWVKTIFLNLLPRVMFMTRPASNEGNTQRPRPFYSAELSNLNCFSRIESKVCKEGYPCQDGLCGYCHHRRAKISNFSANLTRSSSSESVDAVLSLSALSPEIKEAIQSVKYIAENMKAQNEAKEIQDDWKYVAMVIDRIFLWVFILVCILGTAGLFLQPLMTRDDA", "T1 sequence (Q8SPU6 20-496)": "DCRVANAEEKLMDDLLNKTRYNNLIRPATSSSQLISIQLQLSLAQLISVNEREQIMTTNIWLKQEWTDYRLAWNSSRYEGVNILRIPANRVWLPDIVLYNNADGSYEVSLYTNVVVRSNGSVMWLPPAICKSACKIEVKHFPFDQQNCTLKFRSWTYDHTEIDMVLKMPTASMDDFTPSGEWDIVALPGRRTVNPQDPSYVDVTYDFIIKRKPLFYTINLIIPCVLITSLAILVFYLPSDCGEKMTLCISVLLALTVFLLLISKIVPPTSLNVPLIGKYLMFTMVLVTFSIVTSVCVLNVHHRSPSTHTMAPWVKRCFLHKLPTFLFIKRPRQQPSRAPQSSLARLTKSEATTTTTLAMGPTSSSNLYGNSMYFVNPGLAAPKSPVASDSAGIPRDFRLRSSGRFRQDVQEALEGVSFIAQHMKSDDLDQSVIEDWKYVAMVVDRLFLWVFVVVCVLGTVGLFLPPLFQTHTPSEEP", "settings": "cited from earlier work"}, "[2]": {"molecular_target": "T1, neuronal-type nicotinic receptors", "format": "cell-based, Bovine"}},
  "note": "Where “and” joins values, the source holds several entries; their conditions need not be identical. Equal values may be shown once. Positions of bridges follow the written chain, without caps; N, C: chain ends. Non-standard residues stand in square brackets, D forms with d. Residues, ends and D or L forms follow the SMILES beside them. ξ: configuration not given here. Ala(indol-2-yl) = N[C@@H](Cc1cc2ccccc2[nH]1)C(=O)O; AllylGly = C=CC[C@H](N)C(=O)O; ξP = O=C(O)C1CCCN1",
  "data": [
    {"compound": "C[C@@H]1NC(=O)[C@@H]2CSSC[C@H](NC(=O)CN)C(=O)N[C@@H](CSSC[C@@H](C(N)=O)NC(=O)[C@H](CCCNC(=N)N)NC(=O)[C@H](Cc3cc4ccccc4[nH]3)NC1=O)C(=O)N[C@@H](CO)C(=O)N[C@@H](CC(=O)O)C(=O)N1CCCC1C(=O)N[C@@H](CCCNC(=N)N)C(=O)N2", "note": "(stereo partly drawn) [native-Ctx ImI] (H-GCCSD[ξP]RCA[Ala(indol-2-yl)]RC-NH2; disulfide 2-8, 3-12)", "values": [
      {"measurement": "effect on nicotine-stimulated release of adrenaline and noradrenaline", "setting": "[1]", "value": "inhibit"}
    ]},
    {"compound": "C[C@@H]1NC(=O)[C@@H]2CSSC[C@H](NC(=O)CN)C(=O)N[C@@H](CC=CC[C@@H](C(N)=O)NC(=O)[C@H](CCCNC(=N)N)NC(=O)[C@H](Cc3cc4ccccc4[nH]3)NC1=O)C(=O)N[C@@H](CO)C(=O)N[C@@H](CC(=O)O)C(=O)N1CCCC1C(=O)N[C@@H](CCCNC(=N)N)C(=O)N2", "note": "(stereo partly drawn) [compound 119, [2,8]-Cystino-[3,12]-Dicarba Conotoxin ImI: NH2-Gly-Cys-c [Hag-Ser-Asp-Pro-Arg-Cys-Ala-Trp-Arg-Hag]-NH2] (H-GC[AllylGly]SD[ξP]RCA[Ala(indol-2-yl)]R[AllylGly]-NH2; disulfide 2-8; staple 3-12)", "values": [
      {"measurement": "Adrenaline Release, 1st-4th (individual wells)", "setting": "[2]", "value": "3.31% and 3.67% and 4.14% and 3.98% and 2.32% and 2.95% and 2.76% and 3.02%"},
      {"measurement": "Adrenaline Release, % control", "setting": "[2]", "value": "83.420% and 58.888%"},
      {"measurement": "Adrenaline Release, mean", "setting": "[2]", "value": "3.77% and 2.76%"},
      {"measurement": "Noradrenaline Release, 1st-4th (individual wells)", "setting": "[2]", "value": "4.89% and 5.75% and 5.73% (2×) and 3.22% and 4.58% and 3.99% and 4.81%"},
      {"measurement": "Noradrenaline Release, % control", "setting": "[2]", "value": "78.400% and 55.971%"},
      {"measurement": "Noradrenaline Release, % inhibition", "setting": "[2]", "value": 21.600, "unit": "%"},
      {"measurement": "Noradrenaline Release, mean", "setting": "[2]", "value": "5.52% and 4.15%"},
      {"measurement": "noradrenaline released, basal release (0.72%) subtracted", "setting": "[2]", "value": 3.43, "unit": "%"}
    ]},
    {"compound": "C[C@@H]1NC(=O)[C@@H]2CCCC[C@H](NC(=O)CN)C(=O)N[C@@H](CSSC[C@@H](C(N)=O)NC(=O)[C@H](CCCNC(=N)N)NC(=O)[C@H](Cc3cc4ccccc4[nH]3)NC1=O)C(=O)N[C@@H](CO)C(=O)N[C@@H](CC(=O)O)C(=O)N1CCCC1C(=O)N[C@@H](CCCNC(=N)N)C(=O)N2", "note": "(stereo partly drawn) [compound 118, [2,8]-Dicarba-[3,12]-Cystino Conotoxin ImI: NH2-Gly-c[Hag-Cys-Ser-Asp-Pro-Arg-Hag]-Ala-Trp-Arg-Cys)-NH2]", "values": [
      {"measurement": "Adrenaline Release, 1st-4th (individual wells)", "setting": "[2]", "value": "2.94% and 4.40% and 4.46% and 4.09% and 2.55% and 3.63% and 2.62% and 3.31%"},
      {"measurement": "Adrenaline Release, % control", "setting": "[2]", "value": "88.260% and 65.306%"},
      {"measurement": "Adrenaline Release, mean", "setting": "[2]", "value": "3.97% and 3.03%"},
      {"measurement": "Noradrenaline Release, 1st-4th (individual wells)", "setting": "[2]", "value": "4.52% and 6.29% and 7.00% and 7.34% and 4.19% and 5.86% and 4.32% and 5.51%"},
      {"measurement": "Noradrenaline Release, % control", "setting": "[2]", "value": "90.859% and 69.384%"},
      {"measurement": "Noradrenaline Release, mean", "setting": "[2]", "value": "6.29% and 4.97%"}
    ]}
  ]
}
